This is an account of results in patent EP4741392A1, “1H-PYRAZOLO[4,3-C]PYRIDINE COMPOUND, AND COMPOSITION THEREOF AND USE THEREOF” (Shenzhen TargetRx Co., Ltd., priority 2023, dated 2025).

Holding throughout (type): biochemical
In one assay the target is T1, ITK (Homo sapiens, UniProt Q08881).
T1 construct: purchased Carna 08-181
T1 sequence (Q08881 1-620): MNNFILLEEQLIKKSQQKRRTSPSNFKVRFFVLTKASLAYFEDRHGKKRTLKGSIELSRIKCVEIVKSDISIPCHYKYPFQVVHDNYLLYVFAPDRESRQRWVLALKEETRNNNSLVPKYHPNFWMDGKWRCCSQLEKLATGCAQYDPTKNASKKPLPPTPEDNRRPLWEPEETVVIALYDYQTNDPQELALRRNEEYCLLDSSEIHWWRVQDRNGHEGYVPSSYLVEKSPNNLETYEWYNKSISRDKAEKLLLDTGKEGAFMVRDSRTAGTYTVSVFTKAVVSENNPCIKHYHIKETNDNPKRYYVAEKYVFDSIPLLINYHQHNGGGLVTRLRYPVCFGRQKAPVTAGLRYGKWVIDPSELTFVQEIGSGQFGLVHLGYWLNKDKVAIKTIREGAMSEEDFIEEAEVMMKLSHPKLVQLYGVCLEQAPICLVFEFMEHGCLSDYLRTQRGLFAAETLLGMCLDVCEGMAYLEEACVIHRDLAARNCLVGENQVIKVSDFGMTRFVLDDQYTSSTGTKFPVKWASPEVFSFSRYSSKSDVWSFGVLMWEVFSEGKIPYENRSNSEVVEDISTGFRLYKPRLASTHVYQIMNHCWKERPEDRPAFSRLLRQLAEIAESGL
Kind of assay: Kinase activity inhibition assay (HTRF TK Kit), selectivity. In outline: (§1)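 Compounds are serially diluted and incubated with kinase, substrate and ATP at room temperature, the plate having been prepared on ice. Detection reagents are then added for 1 h, and the 665/620 nm fluorescence ratio is converted to percent inhibition for curve fitting.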
On the technique in general: In TR-FRET formats the signal depends on donor and acceptor labels being close together.

The target of a further assay is T2, EGFR (Homo sapiens, UniProt P00533).
T2 construct: purchased Carna 08-115
The description is as above. An outline of the steps: as §1

The target of the next assay is T3, TEC (Homo sapiens, UniProt P42680).
T3 construct: purchased Carna 08-182
T3 sequence (P42680 1-631): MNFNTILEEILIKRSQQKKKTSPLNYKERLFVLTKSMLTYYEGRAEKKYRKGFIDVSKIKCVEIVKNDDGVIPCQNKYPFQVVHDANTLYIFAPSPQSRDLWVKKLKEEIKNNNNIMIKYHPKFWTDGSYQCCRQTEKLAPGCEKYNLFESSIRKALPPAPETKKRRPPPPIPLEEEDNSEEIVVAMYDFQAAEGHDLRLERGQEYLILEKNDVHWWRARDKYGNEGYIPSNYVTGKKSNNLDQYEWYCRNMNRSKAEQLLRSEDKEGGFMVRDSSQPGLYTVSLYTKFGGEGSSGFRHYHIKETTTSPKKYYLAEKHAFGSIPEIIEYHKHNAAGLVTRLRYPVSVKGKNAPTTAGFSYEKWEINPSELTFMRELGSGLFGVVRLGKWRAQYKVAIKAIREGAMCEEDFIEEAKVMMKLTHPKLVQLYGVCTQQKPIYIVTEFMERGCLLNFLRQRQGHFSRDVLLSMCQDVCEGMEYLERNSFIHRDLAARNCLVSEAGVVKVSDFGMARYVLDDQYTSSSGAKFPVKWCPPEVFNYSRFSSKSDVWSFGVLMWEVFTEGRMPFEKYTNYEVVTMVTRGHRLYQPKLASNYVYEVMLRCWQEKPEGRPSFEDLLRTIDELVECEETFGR
The description is as above. In outline: as §1

A further assay concerns the target T4, BTK T474I (Homo sapiens, UniProt Q06187, T474I).
T4 construct: purchased SignalChem B10-12HH
Kind of assay: Kinase activity inhibition assay (HTRF TK Kit). An outline of the steps: as §1

The target in another assay is T5, BTK C481S (Homo sapiens, UniProt Q06187, C481S).
T5 construct: purchased Carna 08-547
Kind of assay: Kinase activity inhibition assay (HTRF TK Kit). In outline: as §1

The target in another assay is T6, BTK kinase (Homo sapiens, UniProt Q06187).
T6 construct: purchased Invitrogen PV3587
Kind of assay: Kinase activity inhibition assay (HTRF TK Kit). An outline of the steps:
as §1

T6 sequence (Q06187 whole entry): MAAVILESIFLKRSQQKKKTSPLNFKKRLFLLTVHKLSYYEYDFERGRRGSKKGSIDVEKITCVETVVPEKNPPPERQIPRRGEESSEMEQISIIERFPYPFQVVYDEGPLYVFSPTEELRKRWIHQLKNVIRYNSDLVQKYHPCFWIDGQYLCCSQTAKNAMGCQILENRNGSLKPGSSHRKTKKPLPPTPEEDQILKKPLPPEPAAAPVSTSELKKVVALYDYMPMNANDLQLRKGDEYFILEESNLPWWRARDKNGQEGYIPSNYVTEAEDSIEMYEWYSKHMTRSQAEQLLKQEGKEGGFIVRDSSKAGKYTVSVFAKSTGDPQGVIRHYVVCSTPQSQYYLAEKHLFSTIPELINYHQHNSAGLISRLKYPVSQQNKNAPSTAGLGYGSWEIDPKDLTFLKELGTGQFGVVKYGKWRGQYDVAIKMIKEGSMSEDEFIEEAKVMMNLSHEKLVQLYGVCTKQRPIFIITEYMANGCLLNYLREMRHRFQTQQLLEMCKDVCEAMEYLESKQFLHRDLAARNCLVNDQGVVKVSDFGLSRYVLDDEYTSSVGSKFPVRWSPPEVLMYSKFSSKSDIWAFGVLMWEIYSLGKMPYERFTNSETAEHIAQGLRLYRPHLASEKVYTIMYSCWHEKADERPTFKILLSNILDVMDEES
T2 sequence (P00533 669-1210 limits assumed): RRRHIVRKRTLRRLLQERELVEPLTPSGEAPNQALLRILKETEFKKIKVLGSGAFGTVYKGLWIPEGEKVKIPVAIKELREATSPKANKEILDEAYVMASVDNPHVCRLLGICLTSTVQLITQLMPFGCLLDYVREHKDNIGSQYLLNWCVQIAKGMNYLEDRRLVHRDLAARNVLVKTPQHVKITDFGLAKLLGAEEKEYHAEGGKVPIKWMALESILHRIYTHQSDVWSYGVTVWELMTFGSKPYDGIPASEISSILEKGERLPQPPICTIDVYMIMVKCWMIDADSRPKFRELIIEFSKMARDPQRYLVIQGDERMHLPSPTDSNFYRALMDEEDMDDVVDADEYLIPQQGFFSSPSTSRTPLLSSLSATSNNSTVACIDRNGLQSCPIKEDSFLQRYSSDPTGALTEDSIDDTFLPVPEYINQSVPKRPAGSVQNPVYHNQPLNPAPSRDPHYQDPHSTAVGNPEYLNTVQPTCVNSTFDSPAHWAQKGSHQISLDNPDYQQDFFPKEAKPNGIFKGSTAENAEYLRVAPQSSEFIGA
T5 sequence (Q06187 whole entry C481S): as the sequence (Q06187 whole entry) above, with C481S counted along it
T4 sequence (Q06187 whole entry T474I): as the sequence (Q06187 whole entry) above, with T474I counted along it

As to `COc1ccc(F)cc1C(=O)NCc1ccc(-c2nc(C)c(-c3ncccn3)c3[nH]nc(N)c23)cc1` [Example 84, N-(4-(3-amino-6-methyl-7-(pyrimidin-2-yl)-1H-pyrazolo[4,3-c]pyridin-4-yl)benzyl)-5-fluoro-2-methoxybenzamide], the IC50 at ITK was more than 500 nM; on EGFR, more than 500 nM; at TEC, more than 500 nM; on BTK T474I, 50 to 500 nM; on BTK C481S, 5 to 50 nM; on BTK kinase it was 5 to 50 nM.
Turning to `COc1ccc(F)cc1C(=O)NCc1ccc(-c2nc(C(F)F)c(-c3ncccn3)c3[nH]nc(N)c23)cc1` [Example 85, N-(4-(3-amino-6-(difluoromethyl)-7-(pyrimidin-2-yl)-1H-pyrazolo[4,3-c]pyridin-4-yl)benzyl)-5-fluoro-2-methoxybenzamide], the IC50 at ITK is more than 500 nM; on EGFR, more than 500 nM; at TEC, 50 to 500 nM; on BTK T474I it was 50 to 500 nM; at BTK C481S, 1 to 5 nM; on BTK kinase, 1 to 5 nM.
As to `COc1ccc(F)cc1C(=O)NCc1ccc(-c2nc(C3CCSCC3)cc3[nH]nc(N)c23)cc1` [Example 91, N-(4-(3-amino-6-(tetrahydro-2H-thiopyran-4-yl)-1H-pyrazolo[4,3-c]pyridin-4-yl)benzyl)-5-fluoro-2-methoxybenzamide], the IC50 on ITK was more than 500 nM; on EGFR, 50 to 500 nM; at TEC, 50 to 500 nM; on BTK T474I, 50 to 500 nM; on BTK C481S, 1 to 5 nM; on BTK kinase, 1 to 5 nM.
As to `C=CC(=O)N1CCCC(c2cc3[nH]nc(N)c3c(-c3ccc(CNC(=O)c4cc(F)ccc4OC)cc3)n2)C1` (stereo not drawn) [Example 96, N-(4-(6-(1-acryloylpiperidin-3-yl)-3-amino-1H-pyrazolo[4,3-c]pyridin-4-yl)benzyl)-5-fluoro-2-methoxybenzamide], the IC50 at ITK was more than 500 nM; at EGFR, 50 to 500 nM; at TEC it was 5 to 50 nM; on BTK T474I, 5 to 50 nM; on BTK C481S, 1 to 5 nM; at BTK kinase, 1 to 5 nM.
In the case of `COc1ccc(F)cc1C(=O)NCc1ccc(-c2ncc(-c3nccn4nccc34)c3[nH]nc(N)c23)cc1` [Example 98, N-(4-(3-amino-7-(pyrazolo[1,5-a]pyrazin-4-yl)-1H-pyrazolo[4,3-c]pyridin-4-yl)benzyl)-5-fluoro-2-methoxybenzamide], the IC50 was more than 500 nM on ITK; 50 to 500 nM at EGFR; 5 to 50 nM at TEC; 50 to 500 nM at BTK T474I; 1 to 5 nM on BTK C481S; 1 to 5 nM at BTK kinase.
For the compound `COc1ccc(F)cc1C(=O)NCc1ccc(-c2ncc(-c3nc4ccccc4s3)c3[nH]nc(N)c23)cc1` [Example 99, N-(4-(3-amino-7-(benzo[d]thiazol-2-yl)-1H-pyrazolo[4,3-c]pyridin-4-yl)benzyl)-5-fluoro-2-methoxybenzamide], the IC50 at ITK is more than 500 nM; on EGFR it was 50 to 500 nM; on TEC, 5 to 50 nM; on BTK T474I, 50 to 500 nM; at BTK C481S, 5 to 50 nM; on BTK kinase it was 5 to 50 nM.
As to `COc1ccc(F)cc1C(=O)NCc1ccc(-c2ncc(-c3nc4cccnc4s3)c3[nH]nc(N)c23)cc1` [Example 100, N-(4-(3-amino-7-(thiazolo[5,4-b]pyridin-2-yl)-1H-pyrazolo[4,3-c]pyridin-4-yl)benzyl)-5-fluoro-2-methoxybenzamide], the IC50 was more than 500 nM on ITK; 50 to 500 nM at EGFR; 5 to 50 nM at TEC; 50 to 500 nM at BTK T474I; 1 to 5 nM at BTK C481S; 1 to 5 nM at BTK kinase.
Turning to `CCN1CCc2nc(-c3cnc(-c4ccc(CNC(=O)c5cc(F)ccc5OC)cc4)c4c(N)n[nH]c34)sc2C1` [Example 101, N-(4-(3-amino-7-(5-ethyl-4,5,6,7-tetrahydrothiazolo[5,4-c]pyridin-2-yl)-1H-pyrazolo[4,3-c]pyridin-4-yl)benzyl)-5-fluoro-2-methoxybenzamide], the IC50 at ITK was in the range of 50 to 500 nM; on EGFR, 50 to 500 nM; at TEC, 5 to 50 nM; at BTK T474I it was 5 to 50 nM; at BTK C481S, 1 to 5 nM; at BTK kinase, 1 to 5 nM.
On to `COc1ccc(F)cc1C(=O)NCc1ccc(-c2ncc(-c3ccc4c(n3)nc3n4CCOC3)c3[nH]nc(N)c23)cc1` [Example 102, N-(4-(3-amino-7-(6,7-dihydro-9H-pyrido[2',3':4,5]imidazo[2,1-c][1,4]oxazin-2-yl)-1H-pyrazolo[4,3-c]pyridin-4-yl)benzyl)-5-fluoro-2-methoxybenzamide], for which the IC50 on ITK was more than 500 nM; on EGFR, 50 to 500 nM; on TEC it was more than 500 nM; at BTK T474I, more than 500 nM; on BTK C481S, 5 to 50 nM; at BTK kinase it was 5 to 50 nM.
As to `COc1ccc(F)cc1C(=O)NCc1ccc(-c2ncc(-c3ccc4c(n3)nc3n4C(C)COC3)c3[nH]nc(N)c23)cc1` (stereo not drawn) [Example 103, N-(4-(3-amino-7-(6-methyl-6,7-dihydro-9H-pyrido[2',3':4,5]imidazo[2,1-c][1,4]oxazin-2-yl)-1H-pyrazolo[4,3-c]pyridin-4-yl)benzyl)-5-fluoro-2-methoxybenzamide], the IC50 on ITK was more than 500 nM; at EGFR, 50 to 500 nM; at TEC it was more than 500 nM; at BTK T474I, 50 to 500 nM; on BTK C481S, 5 to 50 nM; on BTK kinase it was 5 to 50 nM.
`COc1ccc(F)cc1C(=O)NCc1ccc(-c2ncc(-c3cccnc3)c3[nH]nc(N)c23)cc1` [Example 105, N-(4-(3-amino-7-(pyridin-3-yl)-1H-pyrazolo[4,3-c]pyridin-4-yl)benzyl)-5-fluoro-2-methoxybenzamide]: the IC50 on ITK is more than 500 nM; at EGFR, more than 500 nM; at TEC it was more than 500 nM; on BTK T474I it was more than 500 nM; at BTK C481S, 50 to 500 nM; at BTK kinase, 5 to 50 nM.
On to `COc1ccc(F)cc1C(=O)NCc1ccc(-c2ncc(-c3ccncc3)c3[nH]nc(N)c23)cc1` [Example 106, N-(4-(3-amino-7-(pyridin-4-yl)-1H-pyrazolo[4,3-c]pyridin-4-yl)benzyl)-5-fluoro-2-methoxybenzamide], for which the IC50 on ITK is more than 500 nM; on EGFR it was more than 500 nM; at TEC it was more than 500 nM; at BTK T474I, more than 500 nM; on BTK C481S, 50 to 500 nM; at BTK kinase, 50 to 500 nM.
On to `COc1ccc(F)cc1C(=O)NCc1ccc(-c2nc(C3CCOCC3)cc3[nH]nc(N)c23)cc1` [Example 115, N-(4-(3-amino-6-(tetrahydro-2H-pyran-4-yl)-1H-pyrazolo[4,3-c]pyridin-4-yl)benzyl)-5-fluoro-2-methoxybenzamide], for which the IC50 is more than 500 nM on ITK; 50 to 500 nM at EGFR; 50 to 500 nM at TEC; 50 to 500 nM at BTK T474I; 1 to 5 nM on BTK C481S; 5 to 50 nM on BTK kinase.
Consider `COc1ccc(F)cc1C(=O)NCc1ccc(-c2nc([C@H]3CC[C@H](CO)CC3)cc3[nH]nc(N)c23)cc1` [Example 117, N-(4-(3-amino-6-((1r,4r)-4-(hydroxymethyl)cyclohexyl)-1H-pyrazolo[4,3-c]pyridin-4-yl)benzyl)-5-fluoro-2-methoxybenzamide], for which the half-inhibitory concentration (IC50) at ITK was more than 500 nM; at EGFR, 5 to 50 nM; at TEC, 50 to 500 nM; on BTK T474I, 50 to 500 nM; at BTK C481S, 1 to 5 nM; at BTK kinase, 1 to 5 nM.

The term IC50 denotes the concentration at which inhibition is half-maximal.
